The text below walks through data of ChEMBL document CHEMBL1201862, “PubChem BioAssay data set” (2004).

Some test systems named below: SK-MEL-2; T47D; IGROV-1; MOLT-4; HOP-62; SN12C; NCI-H522; KM12; HCT-15; DU-145; SF-295; LOX IMVI; TK-10; NCI-H23; ACHN; SK-MEL-5; BT-549; 786-0; CCRF-CEM; PC-3.
What all share (assay): NCI tumour cell line growth inhibition, 48 h

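The compound was tested at five concentrations on cells cultured in 96-well plates, with a 48-hour exposure period. The concentration for 50% growth inhibition is given as GI50.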 Calls of active or inactive are those of the source. Cut-off read from the data, not from the text of the source: active = GI50 up to about 1.1 µM and inactive = higher.

For `O=c1nc2n3c4c(cccc4nc-2c(=O)[nH]1)CCC3`, the GI50 with SK-MEL-2 is > 100 µM (inactive); in the experiment on T47D, 60.7 µM (inactive); in the experiment on IGROV-1, > 100 µM (inactive); in the experiment on MOLT-4 it was > 100 µM (inactive); in the experiment with HOP-62, > 100 µM (inactive); in the experiment with SN12C, > 100 µM (inactive). For the same molecule, the GI50 with NCI-H522 was 27.2 µM (inactive); with KM12, 37.4 µM (inactive); in the experiment on HCT-15, over 100 µM; in the experiment with DU-145, > 100 µM (inactive); in the experiment on SF-295, > 100 µM (inactive); in the experiment on LOX IMVI, > 100 µM (inactive). Moreover, the GI50 with TK-10, with NCI-H23, with ACHN, in the experiment with SK-MEL-5, in the experiment on BT-549 and in the experiment on 786-0 was > 100 µM (inactive) in each case. Moreover, the GI50 with CCRF-CEM and in the experiment on PC-3 was > 100 µM (inactive) throughout.
For `NS(=O)(=O)c1ccc(NC(=S)NC(=O)Nc2ccc(Cl)c(Cl)c2)cc1`, the GI50 in the experiment on SK-MEL-2 was 15 µM (inactive); with T47D, 10.7 µM (inactive); in the experiment with IGROV-1, 19.3 µM (inactive); in the experiment with MOLT-4, 7.6 µM (inactive); with HOP-62, 17.4 µM (inactive); in the experiment with SN12C, 15.8 µM (inactive). Besides, the GI50 was 16 µM (inactive) with NCI-H522; 9.29 µM (inactive) in the experiment with KM12; 11.4 µM in the experiment on HCT-15; 15.5 µM (inactive) in the experiment on DU-145; 13.4 µM (inactive) in the experiment with SF-295; 6.17 µM (inactive) with LOX IMVI. Besides, the GI50 with TK-10 is 25.1 µM (inactive); in the experiment with NCI-H23, 16 µM (inactive); in the experiment with ACHN it was 11.5 µM (inactive); in the experiment with SK-MEL-5, 16.1 µM (inactive); with BT-549 it was 15.4 µM (inactive); in the experiment on 786-0 it was 14.9 µM (inactive). In addition, the GI50 in the experiment with CCRF-CEM is 16.5 µM (inactive); in the experiment with PC-3, 12.9 µM (inactive).
With `CC(C)CC(=O)OC[n+]1cccc(-c2c(COC(=O)NC(C)C)c(COC(=O)NC(C)C)c3n2CCC3)c1`, the GI50 in the experiment with SK-MEL-2 is 34 µM (inactive); with T47D it was 51.3 µM (inactive); in the experiment on IGROV-1, > 100 µM (inactive); in the experiment with MOLT-4, 38 µM (inactive); with HOP-62, 41.7 µM (inactive); in the experiment with SN12C it was 36.9 µM (inactive). The GI50 in the experiment on NCI-H522 was 23.7 µM (inactive); with KM12 it was > 100 µM (inactive); in the experiment with HCT-15, 66.8 µM; in the experiment on DU-145 it was 24.7 µM (inactive); with SF-295 it was 39 µM (inactive); in the experiment with LOX IMVI it was 26.8 µM (inactive). Further, the GI50 is 63.5 µM (inactive) in the experiment with TK-10; 31.1 µM (inactive) in the experiment with NCI-H23; 24.9 µM (inactive) in the experiment with ACHN; 58.5 µM (inactive) in the experiment with SK-MEL-5; 77.3 µM (inactive) in the experiment on BT-549; 27.5 µM (inactive) in the experiment with 786-0. Also, the GI50 in the experiment on CCRF-CEM was 34.1 µM (inactive); in the experiment with PC-3, 48.1 µM (inactive).
With `O=c1[nH]c2nc3ccccc3c(=O)n2/c1=C/c1ccco1`, the GI50 is > 100 µM (inactive) with SK-MEL-2; 23.4 µM (inactive) in the experiment with T47D; > 100 µM (inactive) in the experiment with IGROV-1; > 100 µM (inactive) in the experiment with MOLT-4; > 100 µM (inactive) with HOP-62; > 100 µM (inactive) with SN12C. In addition, the GI50 with NCI-H522 is > 100 µM (inactive); in the experiment with KM12, > 100 µM (inactive); in the experiment with HCT-15, over 100 µM; in the experiment on DU-145, > 100 µM (inactive); with SF-295, > 100 µM (inactive); in the experiment on LOX IMVI, > 100 µM (inactive). The GI50 in the experiment on TK-10, in the experiment with NCI-H23, in the experiment with ACHN, in the experiment with SK-MEL-5, in the experiment on BT-549 and in the experiment with 786-0 was > 100 µM (inactive) each time. Moreover, the GI50 in the experiment on CCRF-CEM and in the experiment with PC-3 was > 100 µM (inactive) throughout.
In the case of `CNC(=O)C(C)NC(=O)C(Cc1ccccc1)NC(=O)OC(C)(C)C` (stereo not given), the GI50 with SK-MEL-2, with T47D, in the experiment with IGROV-1, with MOLT-4, in the experiment with HOP-62 and in the experiment with SN12C was > 100 µM (inactive) in each case. Moreover, the GI50 was 51.2 µM (inactive) in the experiment with NCI-H522; > 100 µM (inactive) in the experiment on KM12; over 100 µM in the experiment with HCT-15; > 100 µM (inactive) with DU-145; > 100 µM (inactive) in the experiment on SF-295; > 100 µM (inactive) in the experiment with LOX IMVI. Moreover, the GI50 in the experiment with TK-10, in the experiment with NCI-H23, in the experiment with ACHN, in the experiment on SK-MEL-5, in the experiment with BT-549 and in the experiment on 786-0 was > 100 µM (inactive) in each case. In addition, the GI50 in the experiment on CCRF-CEM and in the experiment with PC-3 was > 100 µM (inactive) in each case.
Regarding `COc1cc(C2c3cc4c(cc3OC(Nc3ccc(C(=O)O)cc3)C2C)OCO4)cc(OC)c1OC` (stereo not given), the GI50 in the experiment on SK-MEL-2 is 0.579 µM (active); in the experiment with T47D, 0.458 µM (active); in the experiment on IGROV-1 it was 0.618 µM (active); in the experiment on MOLT-4 it was 0.434 µM (active); in the experiment with HOP-62, 0.446 µM (active); in the experiment on SN12C, 0.991 µM (active). For the same molecule, the GI50 in the experiment with NCI-H522 is 0.376 µM (active); in the experiment on KM12 it was 0.241 µM (active); in the experiment on HCT-15 it was 0.294 µM; with DU-145, 0.378 µM (active); in the experiment on SF-295, 0.214 µM (active); in the experiment with LOX IMVI it was 0.532 µM (active). In addition, the GI50 with TK-10 was 25.4 µM (inactive); with NCI-H23, 0.454 µM (active); with ACHN it was 1.38 µM (inactive); with SK-MEL-5, 0.0735 µM (active); in the experiment with BT-549 it was 0.467 µM (active); in the experiment with 786-0, 0.468 µM (active). For the same molecule, the GI50 is 0.282 µM (active) with CCRF-CEM and 0.253 µM (active) in the experiment with PC-3.
In the case of `CC(C)NC(=O)OCc1c(COC(=O)NC(C)C)n(C)c2c1ccc1ccccc12`, the GI50 in the experiment with SK-MEL-2 is 1.78 µM (inactive); in the experiment with T47D, 0.247 µM (active); in the experiment on IGROV-1 it was 1.43 µM (inactive); in the experiment with MOLT-4, 1.15 µM (inactive); in the experiment on HOP-62, 4.75 µM (inactive); in the experiment with SN12C, 2.02 µM (inactive). Also, the GI50 was 0.0417 µM (active) with NCI-H522; 4.51 µM (inactive) in the experiment on KM12; 1.54 µM with HCT-15; 3.1 µM (inactive) in the experiment on DU-145; 4.56 µM (inactive) with SF-295; 1.16 µM (inactive) in the experiment on LOX IMVI. Further, the GI50 with TK-10 was 1.63 µM (inactive); with NCI-H23, 1.54 µM (inactive); in the experiment on ACHN it was 1.48 µM (inactive); in the experiment on SK-MEL-5, 2.34 µM (inactive); in the experiment with BT-549 it was 0.398 µM (active); with 786-0, 1.21 µM (inactive). Moreover, the GI50 in the experiment with CCRF-CEM is 0.112 µM (active); in the experiment with PC-3 it was 4.43 µM (inactive).
Regarding `COc1ccc(/C(CC2OC(=O)c3ccccc32)=N\NC(N)=O)cc1` (stereo not given), the GI50 in the experiment on SK-MEL-2, in the experiment on T47D, in the experiment with IGROV-1, in the experiment on MOLT-4, with HOP-62 and in the experiment on SN12C was > 100 µM (inactive) throughout. Also, the GI50 with NCI-H522 was > 100 µM (inactive); in the experiment on KM12, > 100 µM (inactive); with HCT-15 it was over 100 µM; in the experiment on DU-145, > 100 µM (inactive); in the experiment with SF-295, > 100 µM (inactive); in the experiment on LOX IMVI, > 100 µM (inactive). The GI50 in the experiment with TK-10, with NCI-H23, in the experiment on ACHN, in the experiment on SK-MEL-5, in the experiment on BT-549 and in the experiment on 786-0 was > 100 µM (inactive) throughout. Further, the GI50 in the experiment with CCRF-CEM and in the experiment on PC-3 was > 100 µM (inactive) each time.
Consider `CN(N)/N=N/c1[nH]cnc1[N+](=O)[O-]`, for which the GI50 in the experiment with SK-MEL-2 is > 100 µM (inactive); in the experiment on T47D, 20.6 µM (inactive); in the experiment on IGROV-1 it was > 100 µM (inactive); in the experiment with MOLT-4, 14.6 µM (inactive); in the experiment on HOP-62 it was > 100 µM (inactive); in the experiment with SN12C it was 31.8 µM (inactive). In addition, the GI50 was > 100 µM (inactive) in the experiment on NCI-H522; > 100 µM (inactive) in the experiment on KM12; over 100 µM in the experiment with HCT-15; > 100 µM (inactive) in the experiment on DU-145; > 100 µM (inactive) in the experiment on SF-295; 39.2 µM (inactive) in the experiment with LOX IMVI. Also, the GI50 in the experiment on TK-10 was > 100 µM (inactive); with NCI-H23 it was > 100 µM (inactive); with ACHN, > 100 µM (inactive); in the experiment with SK-MEL-5, > 100 µM (inactive); with BT-549, > 100 µM (inactive); in the experiment with 786-0, 18.7 µM (inactive). Further, the GI50 in the experiment on CCRF-CEM was 5.01 µM (inactive); in the experiment with PC-3 it was > 100 µM (inactive).
For the molecule `Cc1cccc2c(N)c3cccc(C(=O)NCC[N+](C)(C)Cc4ccc([N+](=O)[O-])n4C)c3nc12`, the GI50 in the experiment with SK-MEL-2 is 67.6 µM (inactive); in the experiment with T47D, 4.71 µM (inactive); in the experiment with IGROV-1, 9.53 µM (inactive); in the experiment on MOLT-4, 1.66 µM (inactive); in the experiment on HOP-62, 5.25 µM (inactive); with SN12C, 3.07 µM (inactive). Besides, the GI50 in the experiment on NCI-H522 was 8.65 µM (inactive); with KM12, 16.7 µM (inactive); in the experiment with HCT-15, 27.9 µM; in the experiment with DU-145, 18.8 µM (inactive); with SF-295, 17.6 µM (inactive); in the experiment on LOX IMVI, 18 µM (inactive). The GI50 in the experiment with TK-10 was 47.9 µM (inactive); with NCI-H23, 13.2 µM (inactive); in the experiment with ACHN it was 10.1 µM (inactive); in the experiment with SK-MEL-5 it was 21.7 µM (inactive); in the experiment with BT-549, > 42.6 µM (inactive); in the experiment with 786-0 it was 7.45 µM (inactive). The values for the GI50 in the experiment on CCRF-CEM and with PC-3 were 3.7 µM (inactive) and 24 µM (inactive), respectively.
